Measurements taken from patent US8206690B2, “Oral health composition” (Mars Incorporated, priority 2006, dated 2012).

How the values were obtained:
Assay type in all cases: cell-based, dogs
[1] = tested on: Aerobes; assay: Canine plate biofilm assay (PBA): bacterial viable counts, aerobes; conditions: extracts at 500 μg/ml, counted after 2 days, vs controls
Protocol: (§1) The assay requires fresh supragingival canine dental plaque and saliva for inoculation. The inoculum consists of pooled dental plaque and unfiltered saliva sampled from a group of 14 dogs, varying in age, breed and oral health status.
(§2) The plaque and saliva were resuspended in artificial saliva to form the inoculum of approximately 15% plaque and 30% saliva.
(§3) The plate biofilm assay (PBA) utilises a 24 well plate format in which biofilms, representative of canine dental plaque, are grown on hydroxyapatite (HA) discs. Prior to being introduced to the 24 well assay plate, each HA disc is preconditioned for 2 hours in a solution of 50% filter sterilised canine saliva in artificial canine saliva. […] Each HA disc, with the exception of those being used for biomass quantification, is placed into 500 μl PBS and vortex mixed for 30 seconds to remove biofilm growth from the disc into solution. […] Biofilm-covered HA discs that are being used for biomass quantification are removed from the 24 well assay plate and used directly in the crystal violet assay.
(§4) Viable numbers of bacteria were quantified using Columbia blood agar plates supplemented with haemin and menadione. Aerobes were counted after incubation for 2 days and anaerobes, including black pigmenting colonies (BPC), were counted after incubation at appropriate conditions for 9 days. […]

[2] = tested on: biofilms representative of canine dental plaque; assay: Canine plate biofilm assay (PBA): biomass quantification (crystal violet assay); conditions: 48 hours, extracts at 500 μg/ml, OD595 vs no active controls
Protocol: as §1, §2
as §3, with “saliva. The preconditioning step stimulates the formation of a salivary pellicle on the HA disc surface.” for “saliva.”
The total amount of biofilm grown on the HA discs was quantified using the crystal violet staining method. Biomass was represented as being directly proportional to the OD reading at 595 nm (OD595) of the samples compared to controls. […]

[3] = tested on: black pigmenting colonies (BPC); assay: Canine plate biofilm assay (PBA): bacterial viable counts, black pigmenting colonies; conditions: extracts at 500 μg/ml, counted after 9 days, vs controls
Protocol: as §1, §2, §3, §4

[4] = tested on: anaerobes; assay: Canine plate biofilm assay (PBA): bacterial viable counts, anaerobes; conditions: extracts at 500 μg/ml, counted after 9 days, vs controls
Protocol: as §1, §2, §3, §4

[5] = tested on: Trypsin-like protease activity; assay: Canine plate biofilm assay (PBA): protease activity (liquid BAPNA assay); conditions: 48 hours, extracts at 500 μg/ml, vs controls
Protocol: as §1, §2
as §3, with “saliva. The preconditioning step stimulates the formation of a salivary pellicle on the HA disc surface.” for “saliva.”
Trypsin-like protease activity was measured using the liquid BAPNA assay, a colourimetric assay in which the amount of trypsin present in a sample is directly proportional to the intensity of the colour developed. […]

For [H]/N=C(\N/C(=N/[H])NCCCCCCNC(=N)NC(=N)Nc1ccc(Cl)cc1)Nc1ccc(Cl)cc1 [Chlorhexidine, chlorhexidine], the “Aerobe (log 10 reduction)” value [1] was 2.87 log 10 reduction, the “Biomass (% reduction)” value [2] was 94.40% and the “BPC (Log 10 reduction)” value [3] was 2.74 Log 10 reduction. For the same compound, the “Anaerobe (Log 10 reduction)” value [4] was 2.48 Log 10 reduction and the “Protease (% reduction)” value [5] was 95.76%.
